Assay results as given in US20230323410A1, “BACTERIAL CELLS AND METHODS FOR PRODUCTION OF 2-FLUORO-CIS,CIS-MUCONATE” (priority 2020, published 2023).
Where two headings read alike, the source gives them in different places.

What was measured:
Pmuc3 pSEVA228 = assay type: cell-based, Pseudomonas putida
XylS/Pm = assay type: cell-based, P. putida KT2440; settings: for GFP expression from Pm relative to the one brought about by 1.0 mM 3-mBz: 5.0 mM inducer
CatR/Pcat = assay type: cell-based, P. putida KT2440
BenR/Pben = assay type: cell-based, P. putida KT2440; settings: for increase of induction compared to the uninduced system: 5 mM
P. putida KT2440 [1] = settings: for growth rate as share of the maximum rate on glucose: 20 mM
P. knackmussii [2] = test: Microtiter plate cultivation: growth with metabolites of the bioconversion; settings: for growth rate as share of the μmax observed on only glucose: 15 mM
Pmuc10 = test: as above; settings: for Maximum growth rate μmax: Example 6 (improved method)
P. knackmussii [3] = test: Shaken flask fermentation with 10 mM 2-FBz or 3-FBz; assay type: cell-based, Pseudomonas knackmussii; parameters: rate qp: unit not given here; settings: for product formation rate qp: from 2-FBz; for rate qp: from 3-FBz
P. putida KT2440 [4] = test: as above; assay type: cell-based, Pseudomonas putida
[5] = Example 1, 30 mM as sole carbon source
[6] = Example 6 (improved method), 30 mM as sole carbon source
[7] = Example 1, 30 mM glucose, 10 mM additive
[8] = Example 1, 30 mM glucose, 15 mM additive
[9] = Example 1, 30 mM glucose, 20 mM additive
[10] = Example 6 (improved method), 30 mM glucose, 10 mM additive
[11] = Example 6 (improved method), 30 mM glucose, 15 mM additive
[12] = Example 6 (improved method), 30 mM glucose, 20 mM additive
[13] = Example 6 (improved method), 30 mM glucose, 5.0 mM additive
[14] = Example 1, 30 mM glucose, 5.0 mM additive

O=C([O-])c1ccccc1.[K+] [K-benzoate, potassium benzoate] was tested, and the “Maximum growth rate μmax” value (Pmuc3 pSEVA228; Example 1, 30 mM K-benzoate as carbon source, 0.5 mM 3-mBz) was 0.16 h⁻¹, the “Maximum growth rate μmax” value (Pmuc3 pSEVA228; Example 6 (improved method), 30 mM K-benzoate as carbon source, 0.5 mM 3-mBz) was 0.16 h⁻¹ and the “GFP expression from Pm relative to the one brought about by 1.0 mM 3-mBz” value (XylS/Pm) was 20%. For the same compound, the “GFP fluorescence as compared to the induction by 3-FBz” value (CatR/Pcat; 5 mM) was 35%, the “increase in GFP expression over basal expression” value (BenR/Pben; 2.0 mM) was “No further increase” and the “increase of induction compared to the uninduced system” value (BenR/Pben) was 70%. The “Maximum growth rate μmax” value (P. putida KT2440 [1]; [5]) was 0.37 h⁻¹, the “Maximum growth rate μmax” value (P. putida KT2440 [1]; [6]) was 0.62 h⁻¹ and the “Maximum growth rate μmax” value (P. knackmussii [2]; [5]) was “no growth”. For the same compound, the “Maximum growth rate μmax” value (P. knackmussii [2]; [6]) was “no growth” and the “Maximum growth rate μmax” value (Pmuc10; 30 mM as sole carbon source) was 0.53 h⁻¹.

For O=C(O)c1ccccc1F [Strain 2-FBz, 2-fluorobenzoic acid], the qs (P. knackmussii [3]; 10 mM 2-FBz, initial about 20 h, Example 1) was 0.26 mmol gCDW^−1 h^−1, the qs (P. knackmussii [3]; 10 mM 2-FBz, initial about 20 h, Example 6) was 0.81 mmol gCDW^−1 h^−1 and the “growth rate as share of the maximum rate on glucose” value (P. putida KT2440 [1]; Example 1) was 80%. The “Maximum growth rate μmax” value (P. putida KT2440 [1]; [7]) was 0.57 h⁻¹, the “Maximum growth rate μmax” value (P. putida KT2440 [1]; [8]) was 0.53 h⁻¹ and the “Maximum growth rate μmax” value (P. putida KT2440 [1]; [9]) was 0.48 h⁻¹. For the same compound, the “Maximum growth rate μmax” value (P. putida KT2440 [1]; [10]) was 0.56 h⁻¹, the “Maximum growth rate μmax” value (P. putida KT2440 [1]; [11]) was 0.52 h⁻¹ and the “Maximum growth rate μmax” value (P. putida KT2440 [1]; [12]) was 0.46 h⁻¹. For the same compound, the “growth rate as share of the maximum rate on glucose” value (P. putida KT2440 [1]; Example 6) was 53%, the “growth rate as share of the μmax observed on only glucose” value (P. knackmussii [2]; Example 1) was 58% and the “Maximum growth rate μmax” value (P. knackmussii [2]; [7]) was 0.25 h⁻¹. The “Maximum growth rate μmax” value (P. knackmussii [2]; [8]) was 0.22 h⁻¹, the “Maximum growth rate μmax” value (P. knackmussii [2]; [9]) was “unable to grow at all” and the “Maximum growth rate μmax” value (P. knackmussii [2]; Example 1, 30 mM glucose, 20 mM additive, listed as K-2-F-benzoate) was “no growth”. The “Maximum growth rate μmax” value (P. knackmussii [2]; [10]) was 0.25 h⁻¹, the “Maximum growth rate μmax” value (P. knackmussii [2]; [11]) was 0.19 h⁻¹ and the “Maximum growth rate μmax” value (P. knackmussii [2]; [12]) was “unable to grow at all”. For the same compound, the “Maximum growth rate μmax” value (P. knackmussii [2]; Example 6 (improved method), 30 mM glucose, 20 mM additive, listed as K-2-F-benzoate) was “no growth” and the “growth rate as share of the μmax observed on only glucose” value (P. knackmussii [2]; Example 6) was 54%.

With O=C(O)/C=C\C=C(\F)C(=O)O [Strain 2-FMA, 2-fluoro-cis,cis-muconate] the “combined product formation rate qp” value (P. putida KT2440 [4]; 10 mM 3-FBz) was 0.06 mmol gCDW^−1 h^−1, the “product formation rate qp” value (P. putida KT2440 [4]; from 10 mM 2-FBz) was 0.06 mmol gCDW^−1 h^−1 and the “product formation rate qp” value (P. knackmussii [3]; Example 1) was 0.05 mmol gCDW^−1 h^−1. The “product formation rate qp” value (P. knackmussii [3]; Example 6) was 0.03 mmol gCDW^−1 h^−1, the rate qp (P. knackmussii [3]; Example 1) was 0.05 and the rate qp (P. knackmussii [3]; Example 6) was 0.09. The “response to 1.0 mM as compared to 1.0 mM ccMA” value (CatR/Pcat; 1.0 mM) was 6.7 fold, the “reduction of growth rate and maximum biomass concentration” value (P. putida KT2440 [1]; 15 mM, 30 mM glucose, FIG. 14) was 50% and the “concentration up to which the growth profile was similar to cultures with glucose only” value (P. putida KT2440 [1]; 30 mM glucose, FIG. 14) was “up to 10 mM”. The “Maximum growth rate μmax” value (P. putida KT2440 [1]; Example 6 (improved method), 30 mM glucose, 1.0 mM additive) was 0.86 h⁻¹, the “Maximum growth rate μmax” value (P. putida KT2440 [1]; Example 6 (improved method), 30 mM glucose, 2.0 mM additive) was 1.00 h⁻¹ and the “Maximum growth rate μmax” value (P. putida KT2440 [1]; [13]) was 0.86 h⁻¹. For the same compound, the “Maximum growth rate μmax” value (P. putida KT2440 [1]; [10]) was 0.80 h⁻¹, the “Maximum growth rate μmax” value (P. putida KT2440 [1]; [11]) was 0.66 h⁻¹ and the “Maximum growth rate μmax” value (P. putida KT2440 [1]; [12]) was “no growth”. For the same compound, the “Maximum growth rate μmax” value (Pmuc10; 30 mM glucose, 1 mM additive) was 1.24 h⁻¹, the “Maximum growth rate μmax” value (Pmuc10; 30 mM glucose, 2.0 mM additive) was 1.20 h⁻¹ and the “Maximum growth rate μmax” value (Pmuc10; 30 mM glucose, 5 mM additive) was 1.08 h⁻¹. The “Maximum growth rate μmax” value (Pmuc10; 30 mM glucose, 10 mM additive) was 0.98 h⁻¹, the “Maximum growth rate μmax” value (Pmuc10; 30 mM glucose, 15 mM additive) was 0.47 h⁻¹ and the “Maximum growth rate μmax” value (Pmuc10; 30 mM glucose, 20 mM additive) was “no growth”.

With O=C(O)c1cccc(F)c1 [Strain 3-FBz, 3-fluorobenzoic acid] the “Maximum growth rate μmax” value (Pmuc3 pSEVA228; [7]) was 0.33 h⁻¹, the “Maximum growth rate μmax” value (Pmuc3 pSEVA228; [8]) was 0.32 h⁻¹ and the “Maximum growth rate μmax” value (Pmuc3 pSEVA228; [9]) was 0.30 h⁻¹. The “Maximum growth rate μmax” value (Pmuc3 pSEVA228; [10]) was 0.33 h⁻¹, the “Maximum growth rate μmax” value (Pmuc3 pSEVA228; [11]) was 0.32 h⁻¹ and the “Maximum growth rate μmax” value (Pmuc3 pSEVA228; [12]) was 0.30 h⁻¹. The qs (P. knackmussii [3]; 10 mM 3-FBz, Example 1) was 0.090 mmol gCDW^−1 h^−1, the qs (P. knackmussii [3]; 10 mM 3-FBz, Example 6) was 1.01 mmol gCDW^−1 h^−1 and the expression strength (XylS/Pm; 1.0 mM) was “close to the basal, uninduced expression”. The “GFP expression from Pm relative to the one brought about by 1.0 mM 3-mBz” value (XylS/Pm) was 7%, the “GFP expression under Pm(ML1-17) control relative to the expression provided by Pm” value (XylS/Pm; compound as inducer) was 70% and the induction (CatR/Pcat; 0.5 mM) was “most strongly and fully induced”. The “increase in GFP expression over basal expression” value (BenR/Pben; 1.0 mM) was “No further increase”, the “increase of induction compared to the uninduced system” value (BenR/Pben) was 70% and the “maximum concentration in the presence of which the strain was able to grow” value (P. putida KT2440 [1]; 30 mM glucose, substantially reduced μmax) was 10 mM. The “Maximum growth rate μmax” value (P. putida KT2440 [1]; [14]) was 0.36 h⁻¹, the “Maximum growth rate μmax” value (P. putida KT2440 [1]; [7]) was 0.13 h⁻¹ and the “Maximum growth rate μmax” value (P. putida KT2440 [1]; [8]) was “no growth”. For the same compound, the “Maximum growth rate μmax” value (P. putida KT2440 [1]; [9]) was “no growth”, the “Maximum growth rate μmax” value (P. putida KT2440 [1]; [13]) was 0.25 h⁻¹ and the “Maximum growth rate μmax” value (P. putida KT2440 [1]; [10]) was 0.13 h⁻¹. The “Maximum growth rate μmax” value (P. putida KT2440 [1]; [11]) was “no growth”, the “Maximum growth rate μmax” value (P. knackmussii [2]; [14]) was “almost completely impaired” and the “Maximum growth rate μmax” value (P. knackmussii [2]; Example 1, 30 mM glucose, 5.0 mM additive, listed as K-3-F-benzoate) was 0.01 h⁻¹. The “Maximum growth rate μmax” value (P. knackmussii [2]; [7]) was “no growth”, the “Maximum growth rate μmax” value (P. knackmussii [2]; [8]) was “no growth” and the “Maximum growth rate μmax” value (P. knackmussii [2]; [9]) was “no growth”. The “Maximum growth rate μmax” value (P. knackmussii [2]; [13]) was “almost completely impaired”, the “Maximum growth rate μmax” value (P. knackmussii [2]; Example 6 (improved method), 30 mM glucose, 5.0 mM additive, listed as K-3-F-benzoate) was 0.04 h⁻¹ and the “Maximum growth rate μmax” value (P. knackmussii [2]; [10]) was “no growth”. For the same compound, the “Maximum growth rate μmax” value (P. knackmussii [2]; [11]) was “no growth”, the “Maximum growth rate μmax” value (P. knackmussii [2]; [12]) was “no growth” and the “concentration up to which no toxic effects were observed” value (Pmuc10; 30 mM glucose, FIG. 13) was no more than 20000 µM. For the same compound, the “highest concentration at which the strain was able to produce biomass” value (Pmuc10; 30 mM glucose, FIG. 13, strongly reduced rate and maximum biomass concentration) was no more than 50 mM, the “Maximum growth rate μmax” value (Pmuc10; 30 mM glucose, 10 mM additive) was 0.45 h⁻¹ and the “Maximum growth rate μmax” value (Pmuc10; 30 mM glucose, 20 mM additive) was 0.47 h⁻¹. For the same compound, the “Maximum growth rate μmax” value (Pmuc10; 30 mM glucose, 30 mM additive) was 0.27 h⁻¹, the “Maximum growth rate μmax” value (Pmuc10; 30 mM glucose, 40 mM additive) was 0.24 h⁻¹ and the “Maximum growth rate μmax” value (Pmuc10; 30 mM glucose, 50 mM additive) was 0.20 h⁻¹.
